ChEMBL document CHEMBL1671737, “Impact of recA on levofloxacin exposure-related resistance development” (2010)
Active and inactive are the calls of the source. The rule behind the calls is not given here.

Experiments:
Staphylococcus aureus [1] = test: Antimicrobial activity against recA-deficient Staphylococcus aureus ASAU022 after 24 hrs by modified broth macrodilution method; settings: ASAU022, 24 h
Staphylococcus aureus [2] = test: Bactericidal activity against recA-deficient Staphylococcus aureus ASAU022 assessed as induction of slow growth rate at 0.5 times MIC by time kill study; assay type: functional, organism-based
Staphylococcus aureus [3] = test: Antimicrobial activity against methicillin-resistant Staphylococcus aureus ASAU021 after 24 hrs by modified broth macrodilution method; settings: ASAU021, 24 h
Staphylococcus aureus [4] = test: Antimicrobial activity against recA-deficient Staphylococcus aureus ASAU022 infected in in vitro hollow fiber infection model assessed as suppression of microbial resistance at AUC/MIC ratio of >23; assay type: functional, organism-based
Staphylococcus aureus [5] = test: Bactericidal activity against recA-deficient Staphylococcus aureus ASAU022 assessed as induction of increase bacterial kill rate at 2 times MIC by time kill study; assay type: functional, organism-based
Staphylococcus aureus [6] = test: Antimicrobial activity against recA-deficient Staphylococcus aureus ASAU022 infected in in vitro hollow fiber infection model assessed as suppression of microbial resistance at AUC/MIC ratio of 31; assay type: functional, organism-based
Escherichia coli = test: Antimicrobial activity against recA-deficient Escherichia coli MG1655 after 24 hrs by modified broth macrodilution method; assay type: functional; settings: MG1655, 24 h
Staphylococcus aureus [7] = test: Antimicrobial activity against methicillin-resistant Staphylococcus aureus ASAU021 infected in in vitro hollow fiber infection model assessed as suppression of microbial resistance at AUC/MIC ratio of >32; assay type: functional, organism-based

C[C@H]1COc2c(N3CCN(C)CC3)c(F)cc3c(=O)c(C(=O)O)cn1c23.C[C@H]1COc2c(N3CCN(C)CC3)c(F)cc3c(=O)c(C(=O)O)cn1c23.O [LEVOFLOXACIN]
MIC (Staphylococcus aureus [1]): 0.25 µg/mL | inhibition (Staphylococcus aureus [2]): Active | MIC (Staphylococcus aureus [3]): 1 µg/mL | Activity (Staphylococcus aureus [4]): Active | inhibition (Staphylococcus aureus [5]): Active | Activity (Staphylococcus aureus [6]): Active | MIC (Escherichia coli): 4 ng/mL | Activity (Staphylococcus aureus [7]): Active
